Assay results reported in patent US4399283A, “Pharmaceutical salts of 4'-(9-acridinylamino)-methanesulfon-m-anisidide” (Warner Lambert Company, priority 1981, dated 1983).

Tests used:
[1] = type: physicochemical; conditions: 10 mg/ml, after storing at 5 °C
Source text: The salts of th present invention allow one to prepare solutions of m-AMSA without the aid of dimethylacetamide. Depending upon the salt, concentration and temperature,standing may result in certain of the solutions of salts forming gels. However, a salt need only remain in solution for a period long enough for it to be administered to a patient.

mice = conditions: literature (Cain et al.); cited from earlier work

| Structure (SMILES) | Return of gelled solution to fluid state by warming to room temperature and shaking [1] | Activity in treating mammals in studies using mice (mice) |
| --- | --- | --- |
| COc1cc(NS(C)(=O)=O)ccc1Nc1c2ccccc2nc2ccccc12 [gluconate, 4'-(9-acridinylamino)methanesulfon-m-anisidide D-gluconate] | this could not be achieved |  |
| COc1cc(NS(C)(=O)=O)ccc1Nc1c2ccccc2nc2ccccc12 [m-AMSA, 4'-(9-acridinylamino)-methanesulfon-m-anisidide] |  | high degree of activity |
